Measurements reported in patent US12576055B2, “Disease detection and treatment based on trimethyl-lysine levels” (The Cleveland Clinic Foundation, priority 2018, dated 2026).

Key:
[1] = test system: cutC/D, yeaX/W, or cntA/B microbial TMA generating enzyme systems; test: Recombinant microbial TMA lyases expressed in E. coli, d9-TMA production from d9-labeled substrates; assay type: biochemical; details: E. coli transformed with cutC/D
[2] = Oral (gastric gavage) d9-TML or d9-choline isotope tracer challenge, serial plasma levels by LC/MS/MS
Protocol: Supernatant was loaded for LC/MS/MS analysis.
Whole blood (50 μl) was collected via the saphenous vein from C57BL/6J (Jackson #0664) female mice prior to gavage for the measurement of baseline analyte levels. Mice were administered an oral dose of stable isotope-labelled TML or choline. The gastric gavage consisted of 150 μl of either 150 mM synthetic d9-TML or 150 mM choline-N,N,N-trimethyl-d9 (d9-choline, Cambridge Isotope Lab), followed by post-gavage blood collection at the indicated times. Where indicated, gut microbiota were suppressed in mice by placement of a cocktail of poorly absorbed antibiotics in drinking water for 3 weeks prior to the d9-TML challenge, as previously described (1, 19). Quantification of the abundance of native and isotope-labeled forms of TML, TMA and TMAO in mouse plasma was performed using stable-isotope-dilution LC-MS/MS using established methods for TMA and TML (19), and using the parent daughter ion transitions for TML and its internal standard as described above. In additional studies, the role of gut microbiota in TMAO formation from dietary TML was determined in C57BL/6J mice by performance of oral (gavage) d9-TML challenge. Mice were housed in conventional cages in the absence or presence of a cocktail of broad spectrum antibiotics added to the drinking water previously shown to suppress gut microbiota (1,19).

[3] = test system: human fecal commensals (omnivores and vegans); test: Gut microbial TMA lyase activity assay, d9-TMA production in human polymicrobial fecal anaerobic cultures; assay type: in vitro ADME
Protocol: (§1) TMA lyase activity was monitored by quantifying d9-TMA production from d9(trimethyl) labeled potential nutrient precursors by stable isotope dilution LC/MS/MS analysis. Briefly, TMA lyase activity was typically quantified by incubating the indicated enzyme source (C57BL/6J female mouse intestine segments or human feces from healthy vegans/vegetarians and omnivores). Reactions were initiated by the addition of d9-labeled substrates (d9-TML, d9-carnitine or d9-choline) incubated under anaerobic conditions. Following 20 hours incubation at 37° C., reactions were halted, [^13C3,^15N]-TMA (Sigma Chemicals, St. Louis, MO) in 0.2 N formic acid was added as an internal standard, followed by immediate extraction of TMA isotopologues into the organic layer produced following mixing with successive additions of 2 ml hexane, 1 ml butanol and 0.2 ml 1N NaOH (to deprotonate the TMA isotopologues). Mixtures were then vortexed, centrifuged, and the upper hexane layer was transferred to a 12×75 mm PTFE capped threaded glass tube, acidified with the addition of 200 μl of 0.2 N formic acid, vortexed and the organic and aqueous layers were separated by centrifugation. The now protonated TMA isotopologues were recovered in the aqueous phase for quantitation by stable isotope dilution LC/MS/MS analysis. Sample aliquots were injected onto a reverse phase C18 HPLC column (2.0×150 mm, 5 μm, Phenomenex Prodigy (Phenomenex)) eluted at a flow rate of 0.2 ml/min and resolved using a linear gradient between 0.2% formic acid in water and 0.2% formic acid in acetonitrile/methanol (95:5, v/v). HPLC column effluent was introduced into an AB Sciex 5500 QTRAP mass spectrometer using electrospray ionization in the positive-ion mode. Both d9-TMA and [^13C3,^15N]TMA were monitored using multiple reaction monitoring of parent and characteristic daughter ions: m/z 69→49 for d9-TMA; and m/z 64→47 for [^13C3,^15N]TMA. Reactions without microbial enzyme source (tissues, cells, cell lysates, or isolated proteins) were used as blank.
(§2) Human feces and all bacteria including individual strain and fresh combined 68 strains were grown with 100 μM d9-TML or d9-choline (as a positive control) in complex reduced medium in a Coy anaerobic chamber (5% H2, 20% CO2, and 75% N2, 37° C.) for 0-4 days as previously described (27). The reaction was stopped by adding 6N HCl to samples (1:100 dilution to 60 mM final), and freezing at −80° C. until d9-TMA extraction and analysis by LC-MS/MS, as described in Methods above.

[4] = test system: mouse cecal, colonic and small bowel microbiota; test: Gut microbial TMA lyase activity assay, d9-TMA production in anaerobic cultures of mouse intestine segments
Protocol: as §1

[5] = test system: panel of 68 culturable human commensals; test: In vitro screening for the conversion of d9-TML to d9-TMA by culturable human commensals; assay type: in vitro ADME, human gut bacteria
Protocol: as §2

[6] = female, C57BL/6J, mouse, in vivo
Protocol: Stable isotope dilution LC/MS/MS was used for quantification of TML, TMAO, TMA, lysine, γ-butyrobetaine and carnitine similar to that described previously (1, 8, 9, 15). For TML standard curves, varying levels of TML were spiked into 20 μl control plasma followed by precipitation with 80 μl methanol containing 0.8 nmol d9-TML. Supernatant was loaded for LC/MS/MS analysis. Analyses were performed using electrospray ionization in positive-ion mode with multiple reaction monitoring of parent and characteristic daughter ions and retention times specific for components monitored. The transitions monitored for TML were mass-to-charge ratio (m/z): m/z 189.1→84.1, 189.1→60.1, and 189.1→130.1. The internal standards (e.g., d9-trimethyl-TML, d9-trimethyl-TMAO) were added to plasma before protein precipitation. Various concentrations of analytes and a fixed amount of internal standards were spiked into control plasma to prepare the calibration curves for quantification of plasma analytes. Their concentrations in human and mouse plasma samples were determined by high-performance liquid chromatography with a Shimadzu 8050 triple quadrupole mass spectrometer interfaced to a Shimadzu Nexera Ultra High Performance Liquid Chromatograph (UHPLC) system.
Conventional mice (female, 10 weeks old, C57BL/6J, 10 per treatment group) were placed on chemically defined diets for 11 days.

[7] = reference (19); cited from earlier work
[8] = test system: carotid artery thrombus formation; test: In vivo carotid artery thrombosis model (FeCl3 induced injury); parameters: species or system C57BL/6J mice; details: 1% supplemented diet for 11 days
Protocol: Conventional mice (female, 10 weeks old, C57BL/6J, 10 per treatment group) were placed on chemically defined diets for 11 days. Mice were assessed for in vivo thrombosis potential with the common carotid injury model by application of 10% FeCl3 for 1 min (11, 38). […] The left carotid artery was exposed and injured by placing a FeCl3 soaked filter paper for one minute. […] Time to cessation of blood flow was determined by visual inspection of computer images of the thrombosis process from 30 seconds to 30 minutes by investigators blinded to mouse treatment group.

[9] = conventionally reared C57BL/6J mice, gastric gavage 150 μl of 150 mM
[10] = anaerobic culture, 20 hours, 37° C.

[2H]C([2H])([2H])[N+](CCCCC(N)C(=O)O)(C([2H])([2H])[2H])C([2H])([2H])[2H] (stereo not shown) [d9-TML, [d9-N, N, N-trimethyl] lysine]
conversion into d9-TMA by recombinant microbial TMA generating enzyme systems [1]: none of the known recombinant microbial TMA generating enzyme systems examined supported d9-TML conversion into d9-TMA | plasma d9-TMAO following d9-TML oral gavage in mice treated with oral antibiotics ([2]; 3 weeks cocktail of poorly absorbed broad-spectrum antibiotics): no detectable | impact of pretreatment with oral antibiotics on plasma d9-TML levels following oral gavage ([2]; P=0.87): no impact | plasma level of d9-TMA following oral d9-TML gavage [2, 9]: rose only minimally | plasma level of d9-TMAO following oral d9-TML gavage [2, 9]: rose only minimally | time to increase in plasma d9-TML level following ingestion ([2]; oral gavage, C57BL/6J mice): ≤ 1 h | d9-TML to d9-TMA transformation, feces of omnivores versus vegans ([3]; P<0.04): significantly greater activity than vegans | overall level of TMA generation from TML in human fecal cultures ([3]; omnivores and vegans, anaerobic): relatively low | d9-TMA formation by small bowel microbes [4, 10]: significantly lower but detectable levels | d9-TMA generation by microbes from cecal and colonic segments [4, 10]: generated d9-TMA | conversion of d9-TML to d9-TMA by eighteen individual members of the human commensal library ([5]; anaerobic, 100 μM): none of these species significantly promoted conversion | d9-TML to d9-TMA transformation by pool of all 68 species ([5]; prolonged (4 days) incubation, assay limit of detection ~1 nM): virtually no detectable

C[N+](C)(C)CCO [choline]
plasma level of TMAO after 11 days of the indicated diet [6]: 90.6 ± 55.1 µM | plasma level of TML after 11 days of the indicated diet [6]: 0.8 ± 0.4 µM | rise of plasma TMAO levels ([6]; 11 days): ~20 fold

C[N+](C)(C)CC(=O)O [betaine]
rate as TMA nutrient precursor, less than choline [7]: about 100 fold

[2H]C([2H])([2H])[N+](CCO)(C([2H])([2H])[2H])C([2H])([2H])[2H] [d9-choline, choline-N,N,N-trimethyl-d9]
plasma level of isotope labeled precursor compared with d9-TML challenge ([2]; mouse, in vivo): substantially lower | peak plasma level of d9-TMA, higher than after the same molar amount of oral d9-TML ([2]; mouse, in vivo, po): 30-50 fold | peak plasma level of d9-TMAO, higher than after the same molar amount of oral d9-TML ([2]; mouse, in vivo, po): 30-50 fold | d9-TMA conversion in human fecal cultures, greater than the levels produced from d9-TML [3]: approximately 3 orders of magnitude | synthetic capacity of cecal microbiota to generate d9-TMA, higher than that observed with d9-TML [4]: 1000 fold

C[N+](C)(C)CCCC[C@H](N)C(=O)O [TML, N6-trimethyl-lysine]
in vivo thrombosis potential (thrombus formation rate, time to cessation of blood flow) [8]: failed to significantly change | plasma level of TMAO after 11 days of the indicated diet [6]: 4.5 ± 2.1 µM | plasma level of TML after 11 days of the indicated diet [6]: 37.0 ± 15.5 µM | increase in plasma TML levels ([6]; 11 days): ~100 fold

[2H]C(O)(CC(=O)[O-])C([2H])([2H])[N+](C)(C([2H])([2H])[2H])C([2H])([2H])[2H] (stereo not shown) [d9-carnitine]
d9-TMA formed in vegan fecal cultures compared with d9-TML [3]: comparable degree | production of d9-TMA in polymicrobial fecal cultures from omnivores, greater [3]: > 100 fold | synthetic capacity of cecal microbiota to generate d9-TMA, higher than that observed with d9-TML [4]: 10 fold
